Reference: patent US20090226901A1, “Method of evaluating or selecting agents for preventing or improving pigmented spots” (Kao Corporation, priority 2008, published 2009)

Experiments:
SCF (KITLG) gene [1] = experiment: SCF (KITLG) gene expression in cultured human epidermal keratinocytes, quantitative PCR; format: cell-based; details: cultured epidermal cells
Method: (§1) Human epidermal cells derived from neonatal foreskin were purchased from Kurabo Industries Ltd., and were precultured in a serum-free basal growth medium (EpiLife, product of Kurabo Industries Ltd.) in an atmosphere of 5% (v/v) CO2 at 37° C. The thus-precultured epidermal cells were inoculated into a 6-well culture plate (product of Falcon) (1.0×10^5 cells/well). Twenty-four hours thereafter, the cells were cultured in a growth medium without including BPE (bovine pituitary gland extract) and hEGF (human epidermal growth factor), and 24 hours thereafter, 5-fluorouracil (5-FU, product of Calbiochem), which is a conventionally known p53 activator, was added at a concentration of 1 or 10 μg/mL. After 48-hour treatment, total RNA was extracted by use of TRIzol® Reagent (product of Invitrogen Corporation). Specifically, each well of the culture plate was washed with PBS, and TRIzol® Reagent (1 mL) was added to the well. […]
(§2) The thus-extracted total RNA was subjected to reverse transcription to synthesize cDNA, and the thus-synthesized cDNA was employed for gene expression analysis through quantitative PCR using TaqMan® probe. In the present Example, specifically, expression levels of SCF (KITLG) gene (Assay ID: Hs00241497_m1) and endothelin-1 gene (Assay ID: Hs00174961_m1) were measured. […]

HCT116 cells = details: HCT116 human colon cancer cell line; Cell, 124, 207-219, 2006; cited from earlier work
endothelin-1 gene [2] = experiment: endothelin-1 gene expression in cultured human epidermal keratinocytes, quantitative PCR; format: cell-based; details: cultured epidermal cells
Method: as §1, §2

[3] = tested on: three-dimensional cultured skin model (MEL-300A); experiment: melanin content of three-dimensional cultured skin model (MEL-300A); format: cell-based, human; details: culturing for 14 days, absorbance at 405 nm, relative to control (100%), FIG. 5
Method: A three-dimensional cultured skin model (MEL-300A) was purchased from Kurabo Industries Ltd. Immediately after the product had been obtained, a tissue cup was transferred into a 6-well culture plate (product of Falcon), and cultured overnight in a long-term maintenance medium (EPI-100-NMM-113, product of Kurabo Industries Ltd.) (1 mL), in an atmosphere of […] at 37° C. Subsequently, pifithrin-α (PFT), which is a conventionally known p53 inhibitor, was added, followed by culturing for 14 days. Culturing was carried out by allowing the tissue cup to stand still on a sterilized stainless steel washer (product of Kurabo Industries Ltd.) and by use of a long-term maintenance medium (5 mL). Medium was exchanged every three days. After culturing, skin tissue was removed from the tissue cup with tweezers, and then washed thrice with PBS, once with 5% (v/v) trichloroacetic acid, and once with a mixture of diethyl ether and ethanol (1:3 by volume). Thereafter, the thus-washed skin tissue was incubated at 50° C. for two hours, to thereby dry the tissue. Subsequently, the tissue was dissolved in 2N aqueous sodium hydroxide solution (2N) (200 μL), followed by centrifugation at 15,000 rpm for 15 minutes. Thereafter, the culture supernatant was recovered, and absorbance was measured at 405 nm, to thereby calculate the melanin content in the tissue.

endothelin-1 gene [4] = experiment: endothelin-1 gene expression in organ-cultured skin tissue of pigmentatio petaloides actinica, RT-PCR; format: cell-based, human; details: 10 μM PFT, 72 hours organ culture, epidermis, relative to control spot sample, FIG. 6
From the text: (§3) Through a contract laboratory of Stephens & Associates (Carrollton, Tex.), subjects having spots were recruited. A dermatologist, contractor of the laboratory, collected samples of skin tissue with pigmentatio petaloides actinica from the shoulder (at two sites for each subject) in two subjects at with a biopsy trepan (diameter: 4 mm). Thereafter, the thus-collected skin biopsy samples were immersed in Dulbecco's modified Eagle's medium (DMEM), and transported to the Cincinnati branch of Biological Science Americas Laboratories while being maintained at about 4 to 10° C. […]
(§4) Thereafter, total RNA was extracted by use of RNeasy micro kit (Qiagen), and cDNA was synthesized through a customary method by means of ThermoScript RT-PCR Systems (Invitrogen, Carlsbad, Calif.). Probes specific to tyrosinase mRNA, SCF (KITLG) mRNA, and endothelin-1 mRNA were obtained from TaqMan® Gene Expression Assays (Applied Biosystems) (Assay IDs: Hs00165976_m1, Hs00241497_m1, and Hs00174961_ml), and real-time quantitative RT-PCR was carried out by means of ABI PRISM 7300 sequence detection system (Applied Biosystems). […] The expression level of each gene in the PFT-treated spot sample was calculated relative to that of the gene in a control spot sample (taken as 1).

tyrosinase gene = tyrosinase gene expression in organ-cultured skin tissue of pigmentatio petaloides actinica, RT-PCR; format: cell-based, human; details: 10 μM PFT, 72 hours organ culture, epidermis, relative to control spot sample, FIG. 6
From the text: as §3, §4

SCF (KITLG) gene [5] = experiment: SCF (KITLG) gene expression in organ-cultured skin tissue of pigmentatio petaloides actinica, RT-PCR; format: cell-based, human; details: 10 μM PFT, 72 hours organ culture, epidermis, relative to control spot sample, FIG. 6
From the text: as §3, §4

[6] = 5-FU 1 or 10 μg/mL, 48-hour treatment, FIG. 3
[7] = PFT 1 or 10 μM, 24-hours culturing, FIG. 4

## O=c1[nH]cc(F)c(=O)[nH]1 [5-fluorouracil]
SCF (KITLG) gene [1]; [6]
  expression of SCF (KITLG) gene: significantly induced
HCT116 cells
  expression level of SCF (KITLG) gene: induced
endothelin-1 gene [2]; [6]
  expression of endothelin-1 gene: significantly induced

## Cc1ccc(C(=O)Cn2c3c(sc2=N)CCCC3)cc1 [pifithrin-α]
SCF (KITLG) gene [1]; [7]
  expression of SCF (KITLG) gene: significantly decreased
[3]
  melanin contents: decreased the melanin contents of the three-dimensional cultured skin model in a dose-dependent manner
endothelin-1 gene [4]
  expression of endothelin-1 gene: tended to be significantly decreased
endothelin-1 gene [2]; [7]
  expression of endothelin-1 gene: significantly decreased
Tyrosinase gene
  expression level of tyrosinase gene: significantly decreased
SCF (KITLG) gene [5]
  expression level of SCF (KITLG) gene: significantly decreased
